# In ChEMBL document CHEMBL1201862, “PubChem BioAssay data set” (2004):
#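 Test compounds were applied to cells in 96-well plates for 48 hours at 5 doses. Abbreviation: GI50, concentration required for 50% inhibition of growth.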 Activity calls are given as the source filed them. No stated cut-off is given here; in the data, active = GI50 up to about 1.1 µM and inactive = higher.
# Tests used:
# Assay in all cases: NCI anticancer screen, dose series, 48 h
# COLO 205 = test system: COLO 205
# HCT-116 = test system: HCT-116
# HCT-15 = test system: HCT-15
# IGROV-1 = test system: IGROV-1
# K562 = test system: K562
# MCF7 = test system: MCF7
# NCI-H460 = test system: NCI-H460
# NCI-H522 = test system: NCI-H522
# NCI/ADR-RES = test system: NCI/ADR-RES
# OVCAR-4 = test system: OVCAR-4
# OVCAR-5 = test system: OVCAR-5
# OVCAR-8 = test system: OVCAR-8
# RPMI-8226 = test system: RPMI-8226
# SF-268 = test system: SF-268
# SN12C = test system: SN12C
# SR = test system: SR
# SW-620 = test system: SW-620
# UACC-257 = test system: UACC-257
# UO-31 = test system: UO-31
# SK-MEL-2 = test system: SK-MEL-2
SMILES,GI50 (COLO 205),GI50 (HCT-116),GI50 (HCT-15),GI50 (IGROV-1),GI50 (K562),GI50 (MCF7),GI50 (NCI-H460),GI50 (NCI-H522),GI50 (NCI/ADR-RES),GI50 (OVCAR-4),GI50 (OVCAR-5),GI50 (OVCAR-8),GI50 (RPMI-8226),GI50 (SF-268),GI50 (SN12C),GI50 (SR),GI50 (SW-620),GI50 (UACC-257),GI50 (UO-31),GI50 (SK-MEL-2)
Cc1cccc(C2NC(=O)c3ccccc3N2)c1 (configuration not stated),4.19 µM (inactive),3.28 µM (inactive),2.85 µM,4.62 µM (inactive),0.906 µM (active),3.15 µM (inactive),3.3 µM (inactive),3.69 µM (inactive),4.67 µM (inactive),> 49.1 µM (inactive),17.3 µM (inactive),6.1 µM (inactive),3.2 µM (inactive),11.3 µM (inactive),5.87 µM (inactive),0.791 µM (active),5.62 µM (inactive),> 31.3 µM (inactive),> 26.4 µM (inactive),
COc1cc(/C=C2/SC(c3ccccc3)N(c3cccc(Cl)c3)C2=O)cc(OC)c1OC (configuration not stated),56.1 µM (inactive),15.3 µM (inactive),20.7 µM,,13.5 µM (inactive),24 µM (inactive),32.1 µM (inactive),11.5 µM (inactive),17.1 µM (inactive),41 µM (inactive),29.9 µM (inactive),23.1 µM (inactive),16.2 µM (inactive),21 µM (inactive),17.5 µM (inactive),10.8 µM (inactive),28.6 µM (inactive),40.1 µM (inactive),24.8 µM (inactive),59.3 µM (inactive)
CC(C)(CC1(C)NC(=O)NC1=O)OCc1ccccc1 (configuration not stated),,> 100 µM (inactive),> 100 µM,> 100 µM (inactive),> 100 µM (inactive),> 100 µM (inactive),> 100 µM (inactive),> 100 µM (inactive),> 100 µM (inactive),> 100 µM (inactive),> 100 µM (inactive),> 100 µM (inactive),> 100 µM (inactive),> 100 µM (inactive),> 100 µM (inactive),> 100 µM (inactive),> 100 µM (inactive),> 100 µM (inactive),> 100 µM (inactive),> 100 µM (inactive)
O=C(N/N=C(/c1ccccc1)C(F)(F)F)c1ccncc1,> 100 µM (inactive),> 100 µM (inactive),> 100 µM,> 100 µM (inactive),35.1 µM (inactive),> 100 µM (inactive),> 100 µM (inactive),> 100 µM (inactive),> 100 µM (inactive),,> 100 µM (inactive),> 100 µM (inactive),> 100 µM (inactive),,> 100 µM (inactive),> 100 µM (inactive),,,> 100 µM (inactive),> 100 µM (inactive)
O=c1n(-c2ccccc2)c(=O)n2n1C1C=CC2CCCCCC1,> 100 µM (inactive),> 100 µM (inactive),> 100 µM,> 100 µM (inactive),,> 100 µM (inactive),> 100 µM (inactive),22.8 µM (inactive),> 100 µM (inactive),> 100 µM (inactive),> 100 µM (inactive),> 100 µM (inactive),60 µM (inactive),> 100 µM (inactive),> 100 µM (inactive),> 100 µM (inactive),> 100 µM (inactive),> 100 µM (inactive),> 100 µM (inactive),> 100 µM (inactive)
CSc1ccc(-c2cc(-c3nc4ccccc4[nH]3)nc3[nH]c(-c4nc5ccccc5[nH]4)cc(=O)c23)cc1,37.8 µM (inactive),39.4 µM (inactive),> 100 µM,> 100 µM (inactive),42 µM (inactive),34 µM (inactive),52.1 µM (inactive),> 100 µM (inactive),> 100 µM (inactive),82.4 µM (inactive),> 100 µM (inactive),71 µM (inactive),41.9 µM (inactive),49.2 µM (inactive),71.1 µM (inactive),> 100 µM (inactive),,> 100 µM (inactive),> 100 µM (inactive),> 100 µM (inactive)
COc1ccc(/N=C2/SC(=N/N=c3\sc4ccccc4n3C)S/C2=N/c2ccc(OC)cc2)cc1,> 100 µM (inactive),29.8 µM (inactive),> 100 µM,> 100 µM (inactive),2.92 µM (inactive),> 100 µM (inactive),> 100 µM (inactive),70.8 µM (inactive),> 100 µM (inactive),,> 100 µM (inactive),> 100 µM (inactive),> 100 µM (inactive),> 100 µM (inactive),> 100 µM (inactive),> 100 µM (inactive),> 100 µM (inactive),> 100 µM (inactive),> 100 µM (inactive),> 100 µM (inactive)
CN(CC(=O)O)c1ncc2c(n1)-c1ccccc1SC2,> 100 µM (inactive),> 100 µM (inactive),> 100 µM,> 100 µM (inactive),,69.8 µM (inactive),> 100 µM (inactive),> 100 µM (inactive),> 100 µM (inactive),> 100 µM (inactive),> 100 µM (inactive),> 100 µM (inactive),> 100 µM (inactive),> 100 µM (inactive),> 100 µM (inactive),92.3 µM (inactive),> 100 µM (inactive),> 100 µM (inactive),> 100 µM (inactive),> 100 µM (inactive)
O=c1[nH]cnc2c1ncn2[C@H]1CO[C@@H](CO)[C@@H]1O,> 100 µM (inactive),> 100 µM (inactive),> 100 µM,> 100 µM (inactive),> 100 µM (inactive),> 100 µM (inactive),> 100 µM (inactive),> 100 µM (inactive),> 100 µM (inactive),> 100 µM (inactive),> 100 µM (inactive),,> 100 µM (inactive),> 100 µM (inactive),> 100 µM (inactive),> 100 µM (inactive),> 100 µM (inactive),> 100 µM (inactive),> 100 µM (inactive),> 100 µM (inactive)
Cc1ccc(OCC2OC(C#N)C(Oc3ccc(C)cc3)C2Oc2ccc(C)cc2)cc1 (configuration not stated),> 100 µM (inactive),> 100 µM (inactive),> 100 µM,> 100 µM (inactive),> 100 µM (inactive),> 100 µM (inactive),> 100 µM (inactive),> 100 µM (inactive),> 100 µM (inactive),> 100 µM (inactive),> 100 µM (inactive),> 100 µM (inactive),> 100 µM (inactive),> 100 µM (inactive),> 100 µM (inactive),> 100 µM (inactive),> 100 µM (inactive),,> 100 µM (inactive),51.8 µM (inactive)
CC(=O)O[C@@H]1C(C2CCCCC2)C=[N+]([O-])O[C@@H]1OC1CCCC1(c1ccccc1)c1ccccc1 (some centres not stated),5.73 µM (inactive),4.06 µM (inactive),1.92 µM,3.21 µM (inactive),3.61 µM (inactive),3.18 µM (inactive),13.3 µM (inactive),2.07 µM (inactive),10.2 µM (inactive),7.98 µM (inactive),15.8 µM (inactive),2.04 µM (inactive),2.58 µM (inactive),7.4 µM (inactive),9.23 µM (inactive),2.62 µM (inactive),2.04 µM (inactive),14.9 µM (inactive),8.09 µM (inactive),9.91 µM (inactive)
